Laboratory results from the supplement of paper PMC10307832.

Key:
Assay in all cases: relative viability (nuclei count vs DMSO), 5 days (fraction); higher = more cells survive
Seliciclib + Crizotinib = compound: CC[C@H](CO)Nc1nc(NCc2ccccc2)c2ncn(C(C)C)c2n1 [Seliciclib] + C[C@@H](Oc1cc(-c2cnn(C3CCNCC3)c2)cnc1N)c1c(Cl)ccc(F)c1Cl [Crizotinib] (partner 1 µM)
In short: (§1)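 For relative viability, nuclei counts in treated wells were divided by those in vehicle wells. Lung cancer cell lines had been pin-tool dosed in 1536-well plates the day after seeding and cultured for 5 days, then fixed and stained in one step (final 0.05% Triton X-100, 1% formaldehyde, 1 ug/ml Hoechst) and imaged at 4×. Doses were one drug alone or a fixed anchor-drug dose plus five library-drug doses (not always all listed) in √10 steps, and values are duplicate-plate medians.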

Seliciclib + Palbociclib = compound: CC[C@H](CO)Nc1nc(NCc2ccccc2)c2ncn(C(C)C)c2n1 [Seliciclib] + CC(=O)c1c(C)c2cnc(Nc3ccc(N4CCNCC4)cn3)nc2n(C2CCCC2)c1=O [Palbociclib] (partner 0.5 µM)
In short: as §1

Seliciclib + AZD7762 = compound: CC[C@H](CO)Nc1nc(NCc2ccccc2)c2ncn(C(C)C)c2n1 [Seliciclib] + NC(=O)Nc1cc(-c2cccc(F)c2)sc1C(=O)N[C@H]1CCCNC1 [AZD7762] (partner 0.2 µM)
In short: as §1

Seliciclib + Vorinostat = compound: CC[C@H](CO)Nc1nc(NCc2ccccc2)c2ncn(C(C)C)c2n1 [Seliciclib] + O=C(CCCCCCC(=O)Nc1ccccc1)NO [Vorinostat] (partner 1 µM)
In short: as §1

Cell Line	relative viability (Seliciclib + Crizotinib; first compound 0.08 µM)	relative viability (Seliciclib + Crizotinib; first compound 0.253 µM)	relative viability (Seliciclib + Crizotinib; first compound 0.8 µM)	relative viability (Seliciclib + Crizotinib; first compound 2.53 µM)	relative viability (Seliciclib + Crizotinib; first compound 8 µM)	relative viability (Seliciclib + Palbociclib; first compound 0.08 µM)	relative viability (Seliciclib + Palbociclib; first compound 0.253 µM)	relative viability (Seliciclib + Palbociclib; first compound 0.8 µM)	relative viability (Seliciclib + Palbociclib; first compound 2.53 µM)	relative viability (Seliciclib + Palbociclib; first compound 8 µM)	relative viability (Seliciclib + AZD7762; first compound 0.08 µM)	relative viability (Seliciclib + AZD7762; first compound 0.253 µM)	relative viability (Seliciclib + AZD7762; first compound 0.8 µM)	relative viability (Seliciclib + AZD7762; first compound 2.53 µM)	relative viability (Seliciclib + AZD7762; first compound 8 µM)	relative viability (Seliciclib + Vorinostat; first compound 0.08 µM)	relative viability (Seliciclib + Vorinostat; first compound 0.253 µM)	relative viability (Seliciclib + Vorinostat; first compound 0.8 µM)	relative viability (Seliciclib + Vorinostat; first compound 2.53 µM)	relative viability (Seliciclib + Vorinostat; first compound 8 µM)
201T	1.04	0.996	1.04	1.02	0.95	0.329	0.349	0.353	0.327	0.277	0.578	0.534	0.69	0.622	0.734	0.967	1.07	0.904	0.637	0.906
A549	0.674	0.82	0.799	0.809	0.591	–	–	–	–	–	–	–	–	–	–	–	–	–	–	–
A-427	0.833	0.924	0.795	0.905	0.785	0.488	0.55	0.504	0.468	0.427	0.763	0.912	0.853	1.13	0.998	0.856	0.815	0.877	0.823	0.824
ABC-1	1.2	1.46	0.814	1.08	0.495	0.673	0.565	0.863	–	0.562	0.944	0.764	0.782	0.719	0.637	0.996	0.953	1.29	–	0.774
BEN	0.753	–	0.822	0.929	0.832	0.476	0.469	0.473	0.499	0.453	0.808	0.584	0.694	0.672	0.61	0.543	0.533	0.55	0.502	0.489
CAL-12T	0.624	–	0.846	0.687	0.461	0.524	0.469	0.354	0.226	0.207	0.509	0.772	0.71	0.707	0.729	0.583	0.407	0.788	0.7	0.625
COR-L23	0.61	0.806	0.693	0.671	0.519	0.298	0.315	0.262	0.19	0.165	–	–	–	–	–	0.402	0.43	0.403	0.458	0.359
COR-L 105	0.846	0.698	0.698	0.806	0.6	0.432	0.392	0.276	0.365	0.397	–	–	–	–	–	0.83	0.901	0.859	0.802	0.575
Calu-6	0.773	0.846	0.825	0.956	0.668	–	–	–	–	–	–	–	–	–	–	–	–	–	–	–
ChaGo-K-1	1.14	1.01	1.12	1.12	0.488	0.915	0.957	0.755	0.875	0.805	0.875	0.511	0.895	0.918	0.892	0.758	0.628	0.743	0.654	0.433
EBC-1	0.199	0.226	0.199	0.201	0.213	–	–	–	–	–	–	–	–	–	–	–	–	–	–	–
EKVX	0.743	1.14	0.877	1.11	0.817	0.365	0.305	0.311	0.16	0.204	0.767	0.767	0.791	0.642	0.711	0.627	0.857	0.553	0.633	0.593
EMC-BAC-2	0.735	0.744	0.824	0.728	0.534	0.516	0.474	0.543	0.423	0.455	1.2	1.21	1.25	0.794	0.946	0.454	0.414	0.547	0.259	0.307
EPLC-272H	0.88	0.729	0.746	0.903	0.636	0.33	0.247	0.284	0.323	0.311	0.203	0.17	0.208	0.329	0.347	0.43	0.506	0.476	0.311	0.405
H3255	0.787	0.892	1.01	0.965	0.727	0.344	0.314	0.306	0.26	0.293	0.811	0.848	0.951	0.839	0.823	0.854	0.825	0.855	0.691	0.755
HARA	1.06	1.16	1.06	1.21	0.638	0.284	0.282	0.229	0.259	0.163	0.348	0.293	0.381	0.596	0.908	0.555	0.518	0.588	0.381	0.487
HCC-15	0.798	0.856	0.806	0.869	0.599	0.846	0.782	0.666	0.726	0.493	1.09	1.37	1.22	1.19	1.02	0.893	0.855	0.838	0.747	0.761
HCC-44	0.709	0.842	0.778	0.821	0.698	0.969	1.02	0.994	0.883	0.889	1.02	1.05	1.12	1.12	0.944	1.14	1.19	1.06	1.08	1.07
HCC-78	0.364	0.333	0.327	0.262	0.274	0.504	0.438	0.514	0.395	0.382	0.689	0.66	0.62	0.525	0.51	0.393	0.518	0.389	0.396	0.32
